From the supplement of paper PMC10307832

Legend:
Assay in all cases: relative viability (nuclei count vs DMSO), 5 days (fraction); higher = more cells survive
Carfilzomib + Dasatinib = compound: CC(C)C[C@H](NC(=O)[C@H](CCc1ccccc1)NC(=O)CN1CCOCC1)C(=O)N[C@@H](Cc1ccccc1)C(=O)N[C@@H](CC(C)C)C(=O)[C@@]1(C)CO1 [Carfilzomib] + Cc1nc(Nc2ncc(C(=O)Nc3c(C)cccc3Cl)s2)cc(N2CCN(CCO)CC2)n1 [Dasatinib] (partner 0.075 µM)
Method in brief: (§1)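 A single step with final 0.05% Triton X-100, 1% formaldehyde and 1 ug/ml Hoechst fixed the cells and stained nuclei 5 days after treatment. Lung cancer cell lines in 1536-well plates had been treated by pin tool the day after seeding with one drug alone or a fixed anchor-drug dose plus five library-drug doses (not always all listed) in √10 steps, and nuclei were counted on 4× images. Relative viability is the ratio of nuclei in treated wells to nuclei in vehicle wells, taken as the median of duplicate plates.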

Crizotinib + Pictilisib = compound: C[C@@H](Oc1cc(-c2cnn(C3CCNCC3)c2)cnc1N)c1c(Cl)ccc(F)c1Cl [Crizotinib] + CS(=O)(=O)N1CCN(Cc2cc3nc(-c4cccc5[nH]ncc45)nc(N4CCOCC4)c3s2)CC1 [Pictilisib] (partner 1 µM)
Method in brief: as §1

Crizotinib + OSI-027 = compound: C[C@@H](Oc1cc(-c2cnn(C3CCNCC3)c2)cnc1N)c1c(Cl)ccc(F)c1Cl [Crizotinib] + COc1cccc2cc(-c3nc([C@H]4CC[C@H](C(=O)O)CC4)n4ncnc(N)c34)[nH]c12 [OSI-027] (partner 0.5 µM)
Method in brief: as §1

Crizotinib + Vorinostat = compound: C[C@@H](Oc1cc(-c2cnn(C3CCNCC3)c2)cnc1N)c1c(Cl)ccc(F)c1Cl [Crizotinib] + O=C(CCCCCCC(=O)Nc1ccccc1)NO [Vorinostat] (partner 1 µM)
Method in brief: as §1

Cell Line	relative viability (Carfilzomib + Dasatinib; first compound 0.001 µM)	relative viability (Carfilzomib + Dasatinib; first compound 0.003162 µM)	relative viability (Carfilzomib + Dasatinib; first compound 0.01 µM)	relative viability (Carfilzomib + Dasatinib; first compound 0.03162 µM)	relative viability (Carfilzomib + Dasatinib; first compound 0.1 µM)	relative viability (Crizotinib + Pictilisib; first compound 0.01 µM)	relative viability (Crizotinib + Pictilisib; first compound 0.03162 µM)	relative viability (Crizotinib + Pictilisib; first compound 0.1 µM)	relative viability (Crizotinib + Pictilisib; first compound 0.3162 µM)	relative viability (Crizotinib + Pictilisib; first compound 1 µM)	relative viability (Crizotinib + OSI-027; first compound 0.01 µM)	relative viability (Crizotinib + OSI-027; first compound 0.03162 µM)	relative viability (Crizotinib + OSI-027; first compound 0.1 µM)	relative viability (Crizotinib + OSI-027; first compound 1 µM)	relative viability (Crizotinib + Vorinostat; first compound 0.01 µM)	relative viability (Crizotinib + Vorinostat; first compound 0.03162 µM)	relative viability (Crizotinib + Vorinostat; first compound 0.1 µM)	relative viability (Crizotinib + Vorinostat; first compound 1 µM)	relative viability (Crizotinib + OSI-027; first compound 0.3162 µM)	relative viability (Crizotinib + Vorinostat; first compound 0.3162 µM)
HCC-366	0.624	0.727	0.629	0.705	0.173	0.101	0.141	0.183	0.11	0.17	0.885	0.931	0.889	0.901	0.336	0.423	0.31	0.403		
HCC-827	0.3	0.306	0.239	0.374	0.273	1.1	1.03	0.943	0.96	0.961	0.704	0.738	0.793	0.467	0.873	0.602	0.917		0.461	0.884
HOP-62	0.618	0.655	0.499	0.0996	0.0979	0.469	0.625	0.779	0.342	0.624	0.816	0.84	0.822		0.638	0.672	0.613	0.685	0.765	0.3
IA-LM						0.34	0.331	0.353	0.343	0.305					0.977	0.958	1.07	0.907		0.949
LC-2-ad	0.475	0.711	0.796	0.475	0.256	0.473	0.426	0.461		0.44	0.761	0.974	0.96	0.705	0.703	0.656	0.699	0.704	0.612	
LCLC-97TM1	0.776	0.89	0.837	0.774	0.397	0.205	0.18	0.182	0.128	0.194	0.506	0.457	0.462	0.354	0.672	0.697	0.686	0.658	0.486	0.223
LCLC-103H	0.343	0.503	0.518	0.362	0.299	0.547	0.65	0.669	0.583	0.576	0.483	0.485	0.361	0.428	0.716	0.869	0.841	0.8	0.495	0.434
LK-2	0.299	0.349	0.229	0.154	0.17	0.51	0.59	0.492	0.645	0.568	0.196	0.186	0.166	0.183	0.346	0.29	0.314	0.277	0.189	0.252
LOU-NH91	0.523	0.618	0.564	0.273	0.281	0.45	0.531	0.618	0.515	0.484	0.713	0.724	0.798	0.706	0.893	0.927	0.989	0.836	0.712	
LU99A	0.533	0.688	0.512	0.278	0.152	0.261	0.327	0.348	0.336	0.365	0.304	0.319	0.294	0.275	0.448	0.515	0.512	0.507	0.259	0.459
LXF-289	0.151	0.312	0.192	0.0373	0.0553	0.757	0.803	0.726	0.757	0.782	0.769	0.809	0.758	0.877	0.75	0.799	0.757	0.786	0.489	0.599
NCI-H23	0.811	0.748	0.845	0.158	0.125	0.441	0.539	0.505		0.541	0.631	0.58	0.66	0.541	0.465	0.648	0.596	0.737		
NCI-H522	0.872	0.946	0.885	0.398	0.433						0.672	0.718	0.702	0.701	0.851	1.03	0.803	0.867	0.739	0.877
NCI-H1299						0.827	0.647	0.728	0.718	0.909										
NCI-H1563	0.431	0.463	0.488	0.505	0.367	0.527	0.594	0.628	0.555	0.652	0.705	0.766	0.753	0.766					0.727	
NCI-H1623	0.509	0.571	0.599	0.271	0.642						0.439	0.435	0.454	0.4					0.378	
NCI-H1648											0.274	0.265		0.257		0.412	0.341	0.619	0.224	0.506
NCI-H1703						0.286	0.224	0.236	0.273	0.284										
NCI-H1792	0.753	0.9	0.918	0.657	0.649	0.266	0.286	0.284	0.274	0.285	0.72	0.748	0.656	0.722						
NCI-H2342	0.364	0.32	0.355	0.374	0.321						0.652	0.613	0.623	0.547	0.799	0.844	0.714	0.814	0.509	0.713
SW 900	0.561	0.467	0.137	0.141	0.137						0.499	0.507	0.581	0.568	0.422	0.615	0.511	0.712	0.509	0.481
